The target of data set [1] is T1, IDO1 (Homo sapiens, UniProt P14902).
T1 construct: made in house
In words: Enzyme-based IDO1 activity assay. Format: biochemical. To be noted: purified human IDO1 enzyme; read-out: Enzymatic assay IC50 (hIDO1).

In another data set the target is T2, ferric IDO1 (Homo sapiens, UniProt P14902).
T2 construct: made in house
In words: Measurement of IDO1 absorbance spectra (UV–visible). The format is binding. To be noted: 20 µM compound, 5 µM IDO1, phosphate buffer pH 6.5; 406 nm in absence of compound. As for the experimental part:
Absorbance spectra (250–480 nm) were measured immediately after addition of compound LBJ-10 (20 µM in 0.5% DMSO) to IDO1 (5 µM) in phosphate buffer (pH 6.5) using a Tecan Safire2 microplate reader.
A UV–visible spectra study was performed to evaluate the binding of the representative compound LBJ-10 (Figure 11). The absorption spectrum of the haeme group is highly sensitive to the changes in the polarity of haeme surrounding upon the ligand or substrate binding, leading to the change of spectra properties of the haeme. The UV–visible spectra of ferric IDO1 was measured in the presence and absence of compound LBJ-10.

The target in data set [2] is T1, IDO1. In words: Determination of the inhibition type (rate V against enzyme amount E). The format is biochemical. Particulars: 1 µM inhibitor, 50 µM L-tryptophan. On the procedure: The standard assay mixture (1 ml) contained 50 mM potassium phosphate buffer (pH = 6.5), 25 mM neutralised ascorbic acid, 10 µM methylene blue, 100 µg/mL catalase, 50 µM L-Trp, DMSO (0.5%), and eight different concentrations of IDO1. In addition, 1 µM LBJ-10 solution was added into the mixture. The reaction, at 37 °C, was started by the addition of the substrate and terminated after 60 min by adding 200 µL of 30% (w/v) trichloroacetic acid and further incubated at 50 °C for 30 min to hydrolyse N-formylkynurenine to produce kynurenine. After centrifugation at 12,000 rpm for 15 min at 20 °C, kynurenine in the supernatant (1 mL) was measured by a HPLC system with a reversed phase column (4.6 mm × 15 cm) of GL Sciences Inc. The mobile phase was 10 mM ammonium acetate containing 10% (w/v) methanol, and kynurenine was detected by absorbance at 360 nm. All determinations were carried out in duplicate. The data presented are average values. Based on the results of the activity assay, a function of rate ([V]) against enzyme amount ([E]) was proposed.
We also carried the additional experiment to determine the reversibility of compound LBJ-10. Detailed kinetics analysis was performed on LBJ-10 based on plotting a function of the rate (V) against the enzyme amount ([E]) (Figure 12(A))[58]^,[59]. […]

The nature of data set [3]: Water solubility evaluation (Avdeef–Bucher potentiometric titration). Format: physicochemical. Particulars: thermodynamic from solid. On the procedure: The aqueous solubility was determined on a Gemini Profiler instrument (pION) by the “goldstandard” Avdeef–Bucher potentiometric titration method[46]^,[47].

Converted amounts (≈) assume the structure as drawn.

T1 sequence (P14902 whole entry): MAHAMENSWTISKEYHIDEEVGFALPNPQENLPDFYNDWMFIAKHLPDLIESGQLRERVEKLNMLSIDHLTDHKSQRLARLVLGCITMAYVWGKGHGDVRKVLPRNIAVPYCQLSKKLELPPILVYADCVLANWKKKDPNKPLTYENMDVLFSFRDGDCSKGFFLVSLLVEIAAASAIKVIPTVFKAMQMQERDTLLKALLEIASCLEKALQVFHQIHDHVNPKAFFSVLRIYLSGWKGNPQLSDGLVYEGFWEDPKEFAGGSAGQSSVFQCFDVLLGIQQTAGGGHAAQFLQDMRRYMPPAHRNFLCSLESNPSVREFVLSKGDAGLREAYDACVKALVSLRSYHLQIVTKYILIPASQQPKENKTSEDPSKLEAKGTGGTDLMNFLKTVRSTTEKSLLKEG
T2 sequence (P14902 whole entry): as above

A word on the IC50: it is the concentration that gives 50% inhibition. Take `N#Cc1ccc(C(F)(F)F)nc1SCC(=O)Nc1ccc(F)c(Cl)c1` [LBJ-10, N-(3-chloro-4-fluorophenyl)-2-((3-cyano-6-(trifluoromethyl)pyridin-2-yl)thio) acetamide]: the IC50 at IDO1 [1] turned out to be 0.84 ± 0.33 µM. In addition, the “Soret peak of ferric IDO1 in the presence of compound” value at ferric IDO1 worked out at 416 nm. The “Inhibition type (reversibility)” value at IDO1 [2] was “reversible inhibitor”.

By solubility is commonly meant how much of the substance goes into solution per volume. High values mean much dissolved substance, low ones little dissolved substance. For orientation: melting point means the temperature of the solid-liquid transition. `N#Cc1cccnc1SCC(=O)Nc1ccc(F)cc1` [LBJ-03, 2-((3-Cyanopyridin-2-yl)thio)-N-(4-fluorophenyl)acetamide]: the melting point lay in the range of 198 to 201 °C. The molecule also gave a solubility in data set [3] of 75 µg/mL (≈ 261 µM). In addition, the IC50 at IDO1 [1] is 9.14 ± 0.38 µM.
